Square brackets hold non-standard residues; d marks the D form. Peptide text beside a SMILES is read from it. pY = N[C@@H](Cc1ccc(OP(=O)(O)O)cc1)C(=O)O; Ahp(2) = CCCCC[C@H](N)C(=O)O; Nle = CCCC[C@H](N)C(=O)O; Nva = CCC[C@H](N)C(=O)O; Abu = CC[C@H](N)C(=O)O

In this assay the target is Growth factor receptor-bound protein 2 (Homo sapiens) (UniProt P62993). Put plainly: Binding affinity to Grb2 SH2 domain (53 to 163) (unknown origin) expressed in Escherichia coli SG13009 by ITC analysis.
Sequence of Growth factor receptor-bound protein 2 (Homo sapiens) (P62993 whole entry, looked up, the tested form may be a part): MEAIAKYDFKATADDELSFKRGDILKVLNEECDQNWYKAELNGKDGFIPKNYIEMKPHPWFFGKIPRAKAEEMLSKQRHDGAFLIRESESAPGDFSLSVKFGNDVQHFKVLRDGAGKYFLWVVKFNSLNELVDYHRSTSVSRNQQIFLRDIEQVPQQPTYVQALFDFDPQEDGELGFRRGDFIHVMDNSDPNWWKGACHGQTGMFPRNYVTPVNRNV
Molecule `C/C=C\[C@H](NC(=O)[C@H](Cc1ccc(OP(=O)(O)O)cc1)NC(C)=O)C(=O)N[C@@H](CC(N)=O)C(N)=O` displayed a Ka of 6.1 ×10⁵ /M.

As to `CC(=O)N[C@@H](Cc1ccc(OP(=O)(O)O)cc1)C(=O)N[C@@H](C)C(=O)N[C@@H](CC(N)=O)C(N)=O` (Ac-[pY]-Ala-Asn-NH2), the Ka was determined as 2.2 ×10⁵ /M.

In the case of `CC[C@H](NC(=O)[C@H](Cc1ccc(OP(=O)(O)O)cc1)NC(C)=O)C(=O)N[C@@H](CC(N)=O)C(N)=O` (Ac-[pY]-[Abu]-Asn-NH2), the Ka was 8.6 ×10⁵ /M.

The molecule `CCCCC[C@H](NC(=O)[C@H](Cc1ccc(OP(=O)(O)O)cc1)NC(C)=O)C(=O)N[C@@H](CC(N)=O)C(N)=O` (Ac-[pY]-[Ahp(2)]-Asn-NH2) returned a Ka of 7.8 ×10⁵ /M.

Molecule `CCCC[C@H](NC(=O)[C@H](Cc1ccc(OP(=O)(O)O)cc1)NC(C)=O)C(=O)N[C@@H](CC(N)=O)C(N)=O` (Ac-[pY]-[Nle]-Asn-NH2) had a Ka of 8.4 ×10⁵ /M.

For `CCC[C@H](NC(=O)[C@H](Cc1ccc(OP(=O)(O)O)cc1)NC(C)=O)C(=O)N[C@@H](CC(N)=O)C(N)=O` (Ac-[pY]-[Nva]-Asn-NH2), the Ka was 7.6 ×10⁵ /M.

The values above are taken from ChEMBL document CHEMBL3091435, “Protein-Ligand Interactions: Thermodynamic Effects Associated with Increasing the Length of an Alkyl Chain” (ACS Med Chem Lett, 2013).
